# “Also recorded” adds a separate entry of the source.
# Key:
# [1] = system: SLFN11 expression in OCI-AML5 cells; test: Flow cytometry of total SLFN11 in OCI-AML5 cells after long-term treatment; type: cell-based, human; conditions: OCI-AML5, 2.5 μM
# Protocol: (§1) Live cells were centrifuged at 300 g for 5 minutes, washed once with PBS and centrifuged again. Cells were then fixed in 4% PFA in PBS for 10 minutes at 37° C., and resuspended in PBS. Unless processed immediately, samples were at this point stored in PBS at 4° C. (up to three weeks) or at −80° C. (for long-term storage). If intracellular epitopes were stained, cells were permebealized in 90% MeOH for 30 minutes on ice. Unless processed immediately, samples were also be stored in 90% MeOH at −20° C. for up to two months.
# (§2) Cells (150-200 000 per sample) were washed 1× in PBS and incubated in blocking buffer; (PBS+0.5% BSA) for 15 minutes at room temperature. Thereafter, cells were incubated with primary mouse-anti-human SLFN11 Ab at the indicated dilutions in incubation buffer (IB, PBS+0.5% BSA) for 1 hour at room temperature. Cells were then washed 3× with IB and incubated with secondary AB (conjugated to a fluorescent flurophore) at 1:1000 dilution in IB for 30 minutes at room temperature. Finally, cells were washed 3× in IB and resuspended in PBS. For costaining experiments, cells were subsequently incubated with mouse-anti-human Axl Ab (1H12-A647 conjugated Ab) diluted 1:3000 in IB. Cells were analyzed immediately, or stored for up to 24 hours at 4° C. before analysis. […]
# [2] = system: Slfn11 expression in OCI-AML3 cells; test: Flow cytometry of Slfn11 expression in OCI-AML3 cells after treatment; type: cell-based, human; conditions: OCI-AML3, treated at IC50-values for 24, 48 and 72 hours
# Protocol: as §1, §2
# Slfn11 protein = test: Western blot of MV4-11 subcutaneous tumor xenograft lysates; type: in vivo, mice; conditions: MV4-11 xenografts
# Protocol: (§3) For western blot analysis, cells were lysed on ice using NP-40 lysis buffer with protease- and phosphatase inhibitors. Total protein concentration in lysates was measured using a BCA protein assay kit following the manufacturers instructions. 10% NuPAGE® Bis-Tris precast gels were loaded with 30-50 μg of protein in each well diluted in sample buffer and antioxidant. A 1:1 mix of MagicMark™ XP Western Protein Standard (Invitrogen) and SeeBlue® Plus 2 Pre-Stained Standard was used as protein standard. Gels were run at 50V for 20 min, then at 100V for 1 h30 min. Blotting was done on ice for 1 h 30 min at 100V onto PVDF (pre-activated with MeOH) or nitrocellulose membranes. Membranes were washed in TBS-0.1% Tween-20 (TBS-T), and blocked in TBS-T 5% BSA for at least 1 h at RT. Primary antibody was added at 1:1000 in TBS-T 5% BSA (rabbit-anti-actin Ab was added at 1:2000, rabbit anti-GAPDH Ab was added at 1:3000) in TBS-T 5% BSA, and membranes were incubated over night at 4° C. Membranes were then washed 3× in TBS-T, and incubated in HRP-conjugated secondary antibody at 1:5000 dilution in TBS-T 5% milk for 45 min at RT. Membranes were developed for 1 min using ECL-reagents and imaged with chemiluminescence using a Molecular Imager ChemiDoc™ XRS (BioRad).
# In these studies, mice had been treated with BGB324 25 mg/kg BID and 50 mg/kg BID 2-5 cycle for 14 days, or with a single dose 100 mg/kg (tumors harvested 6 h after treatment).
# Since Slfn11 was reduced in only one of two parallel tumor samples after a single treatment, it was decided to examine more lysates from Study 1 by western blot. In this study, mice with subcutaneous MV4-11 tumor xenografts were treated with a single low (50 mg/kg) or high (100 mg/kg) dose of BGB324, and tumors were harvested at different time points, from 4 hours up to 72 hours after treatment. […] Thus, it appears that Slfn11 is reduced in MV4-11 xenografts within 24-72 hours (depending on the drug concentration) after treatment with a single dose of BGB324. The effect of BGB324 on Slfn11 expression in these tumors appears to be long-lasting, as the protein level stays low 72 hours after treatment. However, there appear to be individual differences, and more than two parallel samples of each time point need to be examined in order to better understand the dynamics of Slfn11 reduction in MV4-11 xenografts after BGB324-treatment.
# pErk = test: MOLM13 systemic xenograft model: biomarker flow cytometry in CD33-positive cells, pErk; type: in vivo, mice; conditions: 50 mg/kg for 4 days
# Protocol: (§4) Material from an in vivo MOLM13 systemic model was also evaluated by flow cytometry. Expression of the previously evaluated biomarkers was examined in cells isolated from bone marrows and spleens of animals with systemic AML disease (MOLM13, inoculated for 7 days prior to treatment) treated with BGB324 at 50 mg/kg for 4 days.
# (§5) Cells isolated from spleens and bone marrows were assessed for phosphorylation of Erk, PLCγ1 and Akt, and expression of PHGDH and SLFN11. The samples were also co-stained with CD33, and biomarker expression was only evaluated in CD33-positive cells.
# [3] = system: Slfn11 expression in OCI-M1 cells; test: Flow cytometry of Slfn11 expression in OCI-M1 cells after treatment; type: cell-based, human; conditions: OCI-M1, treated at IC50-values for 24, 48 and 72 hours
# Protocol: as §1, §2
# SLFN11 transcript [4] = test: Microarray analysis of subcutaneous Mv4-11 xenograft tumors (study 1 and study 2); type: in vivo, NOD/SCID mice; conditions: for downregulation of SLFN11 transcript (Rank Product Analysis): study 2, Mv4-11 xenografts, vs control
# Protocol: (§6) To identify new potential biomarkers of BGB324 efficacy in AML, microarray analyses of tumor material from several AML studies were performed. In the first two studies, NOD/SCID mice were implanted with subcutaneous Mv4-11 xenografts. In study 1 the mice were treated with control (vehicle) or a single dose of BGB324 (50 or 100 mg/kg), and sacrificed after 24 hours. In study 2 the mice were treated BID for 14 days with control (vehicle), low (25 mg/kg) or high (50 mg/kg) dose of BGB324 for 14 days. In a third study, MOLM13 cells were injected intravenously into the tail vein of NSG mice. After three days of inoculation, the animals were treated with control (vehicle), high (50 mg/kg) or low (25 mg/kg) dose of BGB324 QD until the vehicle-treated animals were moribund (14 days after initiation of treatment). Development of leukemia was confirmed by flow cytometric analyses of human CD33/CD45-positive cells in the blood, spleens and bone marrow, and RNA isolated from spleens were sent for microarray analysis.
# One of the most interesting hits from a Rank Product Analysis of study 2 was a transcript called SLFN11.
# SLFN11 = test: MOLM13 systemic xenograft model: biomarker flow cytometry in CD33-positive cells, SLFN11; type: in vivo, mice; conditions: bone marrows, 50 mg/kg for 4 days
# Protocol: as §4, §5
# [5] = system: SLFN11 expression in Mv4-11 cells; test: Flow cytometry of total SLFN11 in Mv4-11 cells after long-term treatment; type: cell-based, human
# Protocol: as §1, §2
# pPLCγ1 = test: MOLM13 systemic xenograft model: biomarker flow cytometry in CD33-positive cells, pPLCγ1; type: in vivo, mice; conditions: 50 mg/kg for 4 days
# Protocol: as §4, §5
# [6] = system: Slfn11 expression in MOLM-13 cells; test: Flow cytometry of Slfn11 expression in MOLM-13 cells after treatment; type: cell-based, human
# Protocol: as §1
# Cells (150-200 000 per sample) were washed 1× in PBS and incubated in blocking buffer; (PBS+0.5% BSA) for 15 minutes at room temperature. Thereafter, cells were incubated with primary mouse-anti-human SLFN11 Ab at the indicated dilutions in incubation buffer (IB, PBS+0.5% BSA) for 1 hour at room temperature. Cells were then washed 3× with IB and incubated with secondary AB (conjugated to a fluorescent flurophore) at 1:1000 dilution in IB for 30 minutes at room temperature. Finally, cells were washed 3× in IB and resuspended in PBS. For costaining experiments, cells were subsequently incubated with mouse-anti-human Axl Ab (1H12-A647 conjugated Ab) diluted 1:3000 in IB. Cells were analyzed immediately, or stored for up to 24 hours at 4° C. before analysis.
# Analysis of cells was done on a BD LSR Fortessa or a BD C6 Accuri flow cytometer, and further processing was done using FlowJo v.7.6.
# pAkt = test: MOLM13 systemic xenograft model: biomarker flow cytometry in CD33-positive cells, pAkt; type: in vivo, mice; conditions: 50 mg/kg for 4 days
# Protocol: as §4, §5
# [7] = system: MOLM13 leukemic cells (CD33/CD45-positive); test: MOLM13 systemic xenograft model: CD33/CD45-positive leukemic cells by flow cytometry; type: in vivo, mice; conditions: 50 mg/kg for 4 days
# Protocol: as §4
# Cells harvested from spleens, blood and bone marrows of the animals were stained with anti CD33 and CD45 antibodies, to determine if systemic disease was established. CD33/CD45-positive cells were identified in spleens (around 10-15%), bone marrows (35-40%) and in the blood (2-6%) of the animals, confirming that the disease was established.
# SLFN11 transcript [8] = test: Microarray analysis of spleen RNA, systemic MOLM13 AML model (study 3); type: in vivo, NSG mice; conditions: study 3, systemic MOLM13, 25 or 50 mg/kg QD, 14 days
# Protocol: as §6
# [9] = system: Slfn11 expression in MOLM-13 cells; test: Western blot of Slfn11 in MOLM-13 cells, increasing doses; type: cell-based, human; conditions: MOLM-13, 48 hours, increasing doses 0.1 uM to 1.2 uM
# Protocol: as §3
# PHGDH = test: MOLM13 systemic xenograft model: biomarker flow cytometry in CD33-positive cells, PHGDH; type: in vivo, mice; conditions: 50 mg/kg for 4 days
# Protocol: as §4, §5
# [10] = system: SLFN11 expression in Kasumi cells; test: Flow cytometry of total SLFN11 in Kasumi cells after long-term treatment; type: cell-based, human; conditions: 2.5 μM
# Protocol: as §1, §2
compound,measurement,setting,value
Nc1nc(Nc2ccc3c(c2)CC[C@@H](N2CCCC2)CC3)nn1-c1cc2c(nn1)-c1ccccc1CCC2 [BGB324],"total protein expression of SLFN11 (flow cytometry, % of control)",[1]; 24 and 48 hours,no significant differences
same,"total protein expression of SLFN11 (flow cytometry, % of control)",[1]; 72 hours,significant increase
same,SLFN11 expression (flow cytometry),[2],marked reduction
same,Slfn11 protein compared to control levels (western blot),"Slfn11 protein; 25 mg/kg BID and 50 mg/kg BID, 14 days",marked reduction
same,Slfn11 protein (western blot),"Slfn11 protein; single dose 100 mg/kg, tumors harvested 6 h after treatment",reduced in one of the two parallel samples
same,duration of effect on Slfn11 protein level,"Slfn11 protein; single dose, 72 hours after treatment",stays low
same,time after single dose within which Slfn11 is reduced,"Slfn11 protein; single dose, depending on the drug concentration",24 to 72 h
same,Slfn11 protein (western blot),"Slfn11 protein; single high dose 100 mg/kg, 24, 48 and 72 hours after treatment",reduction
same,Slfn11 protein (western blot),"Slfn11 protein; single high dose 100 mg/kg, time points earlier than 24 hours (from 4 hours)",not at earlier time points
same,Slfn11 protein (western blot),"Slfn11 protein; single low dose 50 mg/kg, 72 hours after treatment",slight reduction
same,pErk in CD33-positive cells,pErk; bone marrows,significant reduction
same,pErk in CD33-positive cells,pErk; spleens,significant reduction
same,SLFN11 expression (flow cytometry),[3],marked reduction
same,reduction of SLFN11 transcript (Rank Product Analysis),"SLFN11 transcript [4]; study 1, Mv4-11 xenografts, single dose (50 or 100 mg/kg), sacrificed after 24 hours",1.449 fold
same,SLFN11 transcript regulation after 14d treatment (in words),"SLFN11 transcript [4]; study 2, 25 and 50 mg/kg",highly significant dose-dependent downregulation
same,"SLFN11 transcript, SAM (significance of microarray) analysis","SLFN11 transcript [4]; study 2, 14 d treatment, q=0.0",reduction of SLFN11 as the most significant (#1) hit
same,downregulation of SLFN11 transcript (Rank Product Analysis),SLFN11 transcript [4]; 25 mg/kg BID for 14 days,1.98 fold
same,downregulation of SLFN11 transcript (Rank Product Analysis),SLFN11 transcript [4]; 50 mg/kg BID for 14 days,3.98 fold
same,SLFN11 expression in CD33-positive cells,SLFN11,significant reduction
same,"total protein expression of SLFN11 (flow cytometry, % of control)","[5]; Mv4-11, 0.1 uM, 72 hours",significantly reduced
same,"total protein expression of SLFN11 (flow cytometry, % of control)","[5]; Mv4-11, 0.3 μM, 24, 48 and 72 hours",significant reduction
same,pPLCγ1 in CD33-positive cells,pPLCγ1; bone marrows,significant reduction
same,pPLCγ1 in CD33-positive cells,pPLCγ1; spleens,significant reduction
same,"total protein expression of SLFN11 (flow cytometry, % of control)","[6]; MOLM13, 0.3 μM, 24, 48 and 72 hours",significant reduction
same,SLFN11 expression (flow cytometry),"[6]; MOLM-13, 48 hours, increasing doses 0.1 uM to 1.2 uM",dose-dependent downregulation; also recorded: confirmed
same,SLFN11 expression (flow cytometry),"[6]; MOLM-13, treated at IC50-values for 24, 48 and 72 hours",marked reduction
same,pAkt change in CD33-positive cells,pAkt; bone marrows,not significant
same,pAkt change in CD33-positive cells,pAkt; spleens,not significant
same,percentage of leukemic cells (CD33/CD45-positive) vs. vehicle-treated,[7]; blood,significantly higher percentage
same,percentage of leukemic cells (CD33/CD45-positive) vs. vehicle-treated,[7]; bone marrows,no significant differences
same,percentage of leukemic cells (CD33/CD45-positive) vs. vehicle-treated,[7]; spleens,no significant differences
same,SLFN11 transcript regulation in spleens,SLFN11 transcript [8],not among the transcripts that were significantly downregulated
same,Slfn11 expression (western blot),[9],dose-dependent downregulation; also recorded: dose-dependent reduction
same,Slfn11 expression (western blot),[9]; listed as BGB324/R428,reduced in a dose-dependent manner
same,PHGDH expression in CD33-positive cells,PHGDH; bone marrows,significant reduction
same,PHGDH expression in CD33-positive cells,PHGDH; spleens,significant reduction
same,"total protein expression of SLFN11 (flow cytometry, % of control)",[10]; 24 and 48 hours,no significant differences
same,"total protein expression of SLFN11 (flow cytometry, % of control)",[10]; 72 hours,significant increase

# — patent US20170314077A1, “SLFN11 AS BIOMARKER FOR AML” (BERGENBIO AS, priority 2014, published 2017)
